Publication PMC6386767, “Characterization of recombinant fructose-1,6-bisphosphatase gene mutations: evidence of inhibition/activation of FBPase protein by gene mutation” (Bioscience Reports, 2019)
Substitutions are numbered along the chain they refer to.

Legend:
Format in all cases: binding
[1] = target: T1, pig kidney FBPase K112A (Sus scrofa, UniProt P00636, K113A); test: Differential scanning fluorimetry, K112A mutant; conditions: enzyme K112A
T1 construct: His6 (C); made in house; host or cells: Escherichia coli BL21 (DE3)
T1 sequence (P00636 1-338 K113A): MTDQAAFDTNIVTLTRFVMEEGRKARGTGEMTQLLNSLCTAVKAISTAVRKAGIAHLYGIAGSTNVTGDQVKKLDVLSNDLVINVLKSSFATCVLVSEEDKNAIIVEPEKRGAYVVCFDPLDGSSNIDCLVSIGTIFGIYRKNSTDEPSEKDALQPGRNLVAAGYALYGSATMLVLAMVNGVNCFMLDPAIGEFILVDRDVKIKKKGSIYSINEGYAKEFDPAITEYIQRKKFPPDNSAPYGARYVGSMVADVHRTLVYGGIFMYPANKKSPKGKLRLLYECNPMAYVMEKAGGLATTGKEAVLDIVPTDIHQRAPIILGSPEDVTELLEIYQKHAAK
Description: (§1) Differential scanning fluorimetry (DSF) assays were designed and implemented to run on WT and each mutant for the purpose of determining relative stabilities by melting point, and to detect structural changes in the enzymes upon ligand binding. Thermal shift assays were performed with a Light Cycler 96 System Real-Time PCR machine (Roche) using Sypro-Orange dye (Invitrogen) and thermal ramping (0.25°C per min between 20 and 85°C). […] Data were processed using the Boltzmann equation to generate sigmoidal denaturation curves, and average Tm/ΔTm values were calculated as previously described using GraphPad Prism software package.

[2] = target: T2, pig kidney FBPase Y164A (Sus scrofa, UniProt P00636, Y165A); test: Differential scanning fluorimetry, Y164A mutant; conditions: enzyme Y164A
T2 construct: His6 (C); made in house; host or cells: Escherichia coli BL21 (DE3)
T2 sequence (P00636 1-338 Y165A): T1 sequence (P00636 1-338 K113A) with A113K, Y165A
Description: as §1

[3] = target: T3, pig kidney FBPase L56A (Sus scrofa, UniProt P00636, L57A); test: Differential scanning fluorimetry, L56A mutant; conditions: enzyme L56A
T3 construct: His6 (C); made in house; host or cells: Escherichia coli BL21 (DE3)
T3 sequence (P00636 1-338 L57A): T1 sequence (P00636 1-338 K113A) with L57A, A113K
Description: as §1

[4] = target: T4, pig kidney FBPase L73A (Sus scrofa, UniProt P00636, L74A); test: Differential scanning fluorimetry, L73A mutant; conditions: enzyme L73A
T4 construct: His6 (C); made in house; host or cells: Escherichia coli BL21 (DE3)
T4 sequence (P00636 1-338 L74A): T1 sequence (P00636 1-338 K113A) with L74A, A113K
Description: as §1

[5] = target: T5, pig kidney FBPase M248D (Sus scrofa, UniProt P00636, M249D); test: Differential scanning fluorimetry, M248D mutant; conditions: enzyme M248D
T5 construct: His6 (C); made in house; host or cells: Escherichia coli BL21 (DE3)
T5 sequence (P00636 1-338 M249D): T1 sequence (P00636 1-338 K113A) with A113K, M249D
Description: as §1

Row | Compound | melting point of enzyme with Mg^2+ ([…]) ([1]; Mg^2+ […]) | melting point of enzyme with Mg^2+ ([…]) ([2]; Mg^2+ […]) | melting point of enzyme with Mg^2+ ([…]) ([3]; Mg^2+ […]) | melting point of enzyme with Mg^2+ ([…]) ([4]; Mg^2+ […]) | melting point of enzyme with Mg^2+ ([…]) ([5]; Mg^2+ […]) | reduction in melting temperature, presence of AMP vs absence of ligand [1] | melting point of enzyme with AMP (100 µM) ([1]; AMP 100 µM) | melting point of enzyme with AMP (100 µM) ([2]; AMP 100 µM) | melting point of enzyme with AMP (100 µM) ([3]; AMP 100 µM) | melting point of enzyme with AMP (100 µM) ([4]; AMP 100 µM) | melting point of enzyme with AMP (100 µM) ([5]; AMP 100 µM)
1 | [Mg+2] [Mg^2+, magnesium] | 51.0 (± 2.50) °C | 55.2 (± 1.75) °C | 56.0 (± 2.50) °C | 56.5 (±2.25) °C | 65.0 (± 1.75) °C | – | – | – | – | – | –
2 | Nc1ncnc2c1ncn2[C@@H]1O[C@H](COP(=O)(O)O)[C@@H](O)[C@H]1O [AMP] | – | – | – | – | – | 5–9 ° | 42.0 (± 2.50) °C | 55.0 (± 2.25) °C | 57.0 (± 2.75) °C | 56.0 (± 3.00) °C | 59.0 (± 2.50) °C
